Reference: US8637484B2, “Modulation of growth hormone receptor expression and insulin-like growth factor expression” (Antisense Therapeutic Limited, priority 2003, dated 2014)
In the oligonucleotide strings, read from the 5' end, every base follows the letter of its sugar. An asterisk marks phosphorothioate; unmarked linkages are phosphodiester. Other units and linkages are bracketed, terminal groups are in braces. A string of capitals states the bases alone. e = 2'-O-(2-methoxyethyl) (MOE); [5mC] = 5-methylcytosine; d = 2'-deoxy (DNA)

test system: mouse growth hormone receptor mRNA; assay: Inhibition of mouse growth hormone receptor mRNA levels in b.END cells, quantitative real-time PCR; format: cell-based; set-up: % INHIB: concentration or dose not given beside the values; conditions: dose-response studies
Experimental: The mouse brain endothelial cell line b.END was obtained from Dr. Werner Risau at the Max Plank Instititute (Bad Nauheim, Germany). b.END cells were routinely cultured in DMEM, high glucose (Gibco/Life Technologies, Gaithersburg, Md.) supplemented with 10% fetal calf serum (Gibco/Life Technologies, Gaithersburg, Md.). Cells were routinely passaged by trypsinization and dilution when they reached 90% confluence. Cells were seeded into 96-well plates (Falcon-Primaria #3872) at a density of 3000 cells/well for use in RT-PCR analysis.
When cells reached 65-75% confluency, they were treated with oligonucleotide. For cells grown in 96-well plates, wells were washed once with 100 μL OPTI-MEM™-1 reduced-serum medium (Invitrogen Corporation, Carlsbad, Calif.) and then treated with 130 μL of OPTI-MEM™-1 containing 3.75 μg/mL LIPOFECTIN™ (Invitrogen Corporation, Carlsbad, Calif.) and the desired concentration of oligonucleotide. Cells are treated and data are obtained in triplicate. After 4-7 hours of treatment at 37° C., the medium was replaced with fresh medium. Cells were harvested 16-24 hours after oligonucleotide treatment.
Total RNA was isolated using an RNEASY 96™ kit and buffers purchased from Qiagen Inc. (Valencia, Calif.) following the manufacturer's recommended procedures. Briefly, for cells grown on 96-well plates, growth medium was removed from the cells and each well was washed with 200 μL cold PBS. 150 μL Buffer RLT was added to each well and the plate vigorously agitated for 20 seconds. 150 μL of 70% ethanol was then added to each well and the contents mixed by pipetting three times up and down. The samples were then transferred to the RNEASY 96™ well plate attached to a QIAVAC™ manifold fitted with a waste collection tray and attached to a vacuum source. Vacuum was applied for 1 minute. 500 μL of Buffer RW1 was added to each well of the RNEASY 96™ plate and incubated for 15 minutes and the vacuum was again applied for 1 minute. An additional 500 μL of Buffer RW1 was added to each well of the RNEASY 96™ plate and the vacuum was applied for 2 minutes. 1 mL of Buffer RPE was then added to each well of the RNEASY 96™ plate and the vacuum applied for a period of 90 seconds. The Buffer RPE wash was then repeated and the vacuum was applied for an additional 3 minutes. The plate was then removed from the QIAVAC™ manifold and blotted dry on paper towels. The plate was then re-attached to the QIAVAC™ manifold fitted with a collection tube rack containing 1.2 mL collection tubes. RNA was then eluted by pipetting 140 μL of RNAse free water into each well, incubating 1 minute, and then applying the vacuum for 3 minutes.
Quantitation of growth hormone receptor mRNA levels was accomplished by real-time quantitative PCR using the ABI PRISM™ 7600, 7700, or 7900 Sequence Detection System (PE-Applied Biosystems, Foster City, Calif.) according to manufacturer's instructions. This is a closed-tube, non-gel-based, fluorescence detection system which allows high-throughput quantitation of polymerase chain reaction (PCR) products in real-time. As opposed to standard PCR in which amplification products are quantitated after the PCR is completed, products in real-time quantitative PCR are quantitated as they accumulate. This is accomplished by including in the PCR reaction an oligonucleotide probe that anneals specifically between the forward and reverse PCR primers, and contains two fluorescent dyes. A reporter dye (e.g., FAM or JOE, obtained from either PE-Applied Biosystems, Foster City, Calif., Operon Technologies Inc., Alameda, Calif. or Integrated DNA Technologies Inc., Coralville, Iowa) is attached to the 5′ end of the probe and a quencher dye (e.g., TAMRA, obtained from either PE-Applied Biosystems, Foster City, Calif., Operon Technologies Inc., Alameda, Calif. or Integrated DNA Technologies Inc., Coralville, Iowa) is attached to the 3′ end of the probe. […]

| Substance | IC50 [nM] |
| --- | --- |
| 227507 (antisense eG*eT*e[5mC]*e[5mC]*eT*dT*dG*d[5mC]*dT*d[5mC]*d[5mC]*dA*dG*dG*dT*eT*eA*eG*e[5mC]*eA) [compound 227507] | ~12.5 |
| 227509 (antisense eG*e[5mC]*eA*eG*eT*dT*d[5mC]*dT*dA*dT*d[5mC]*dA*dG*dA*dA*e[5mC]*eT*eT*eT*eG) [compound 227509] | ~12.5 |

same assay, conditions: mouse growth hormone receptor mRNA, b.END cells, averages from three experiments

| Substance | % INHIB [%] |
| --- | --- |
| 227466 (antisense eT*eT*eG*eT*eA*dG*dT*dT*dA*dT*d[5mC]*dA*dT*dG*dA*eA*eT*eG*e[5mC]*e[5mC]) [compound 227466] | 50 |
| 227467 (antisense e[5mC]*eA*eT*e[5mC]*eA*dT*dT*dG*dT*dA*dG*dA*dA*dG*dT*e[5mC]*eG*eG*eG*eT) [compound 227467] | 33 |
| 227470 (antisense e[5mC]*eT*e[5mC]*e[5mC]*eA*dA*dG*dG*dA*dT*dA*d[5mC]*d[5mC]*dA*dG*e[5mC]*eT*eG*eA*eT) [compound 227470] | 82 |
| 227471 (antisense eA*eG*eG*e[5mC]*eA*d[5mC]*dA*dA*dG*dA*dG*dA*dT*d[5mC]*dA*eG*e[5mC]*eT*eT*e[5mC]) [compound 227471] | 52 |
| 227472 (antisense eA*eG*eA*eG*e[5mC]*d[5mC]*dA*dA*dG*dG*dG*dA*dA*dG*d[5mC]*eA*eT*e[5mC]*eA*eT) [compound 227472] | 42 |
| 227473 (antisense eA*eA*eG*eT*e[5mC]*dA*dA*dT*dG*dT*dT*dT*dG*d[5mC]*d[5mC]*eA*eG*eT*eG*eA) [compound 227473] | 71 |
| 227474 (antisense eT*eG*eT*e[5mC]*eG*d[5mC]*dT*dT*dA*d[5mC]*dT*dT*dG*dG*dG*e[5mC]*eA*eT*eA*eA) [compound 227474] | 68 |
| 227476 (antisense eG*eT*eA*eA*eT*dT*dT*dT*d[5mC]*dT*dT*dG*dG*d[5mC]*dA*eG*eG*eG*e[5mC]*eG) [compound 227476] | 41 |
| 227477 (antisense e[5mC]*eA*e[5mC]*eT*eG*dT*dT*d[5mC]*dA*dT*dG*d[5mC]*dT*dG*dT*eA*eA*eT*eT*eT) [compound 227477] | 61 |
| 227478 (antisense eT*eT*eT*eT*eT*dG*dG*d[5mC]*dA*dT*d[5mC]*dT*dG*dA*d[5mC]*eT*e[5mC]*eA*e[5mC]*eA) [compound 227478] | 68 |
| 227479 (antisense eA*eT*eG*eT*e[5mC]*d[5mC]*dT*d[5mC]*dT*dT*dG*dG*dT*dT*dA*eA*eA*eG*e[5mC]*eT) [compound 227479] | 59 |
| 227485 (antisense e[5mC]*eG*eT*eG*eG*dT*dG*dT*dA*dG*dT*d[5mC]*dT*dG*dG*eG*eA*e[5mC]*eA*eG) [compound 227485] | 45 |
| 227486 (antisense e[5mC]*eG*eG*eT*eG*dT*dG*dA*dA*d[5mC]*d[5mC]*dG*dT*dG*dG*eT*eG*eT*eA*eG) [compound 227486] | 39 |
| 227487 (antisense eT*e[5mC]*eA*eG*eG*d[5mC]*dA*dA*dA*dG*dG*d[5mC]*dA*dA*dA*eG*e[5mC]*eA*eG*eT) [compound 227487] | 44 |
| 227491 (antisense eT*eA*eG*eG*eA*dA*dA*dG*dG*d[5mC]*dT*dA*d[5mC]*dT*dG*e[5mC]*eA*eT*eG*eA) [compound 227491] | 65 |
| 227492 (antisense eT*eA*eA*eA*eA*d[5mC]*dA*dT*dA*dG*dT*dT*dT*dT*dG*eG*eT*eT*eT*eA) [compound 227492] | 7 |
| 227493 (antisense eT*e[5mC]*e[5mC]*e[5mC]*eA*dA*d[5mC]*dA*d[5mC]*dA*dG*dA*dT*dT*dT*eA*eA*eA*eA*e[5mC]) [compound 227493] | 51 |
| 227494 (antisense e[5mC]*eA*eA*eA*eA*dG*d[5mC]*d[5mC]*dA*d[5mC]*d[5mC]*dT*dG*dA*dT*eT*eG*eT*eT*eT) [compound 227494] | 56 |

| Substance | % INHIB [%] |
| --- | --- |
| 227495 (antisense eT*e[5mC]*e[5mC]*eT*eG*dA*dA*d[5mC]*dT*dG*d[5mC]*dA*dA*dA*dA*eG*e[5mC]*e[5mC]*eA*e[5mC]) [compound 227495] | 47 |
| 227496 (antisense eG*e[5mC]*eA*eT*eT*d[5mC]*dA*dA*dT*dT*dT*d[5mC]*d[5mC]*dT*dG*eA*eA*e[5mC]*eT*eG) [compound 227496] | 51 |
| 227497 (antisense eT*eA*eA*eA*eT*dG*dT*dT*dT*dT*dG*d[5mC]*dA*dT*dA*eT*e[5mC]*e[5mC]*eA*eA) [compound 227497] | 77 |
| 227498 (antisense eT*eT*eG*eT*eA*dA*dA*dA*dA*dT*d[5mC]*dT*dA*dA*d[5mC]*eT*eT*eG*eT*eT) [compound 227498] | 49 |
| 227503 (antisense eT*eA*e[5mC]*e[5mC]*eT*dG*dA*dG*dA*d[5mC]*d[5mC]*d[5mC]*d[5mC]*dA*dG*eT*eT*e[5mC]*eA*eT) [compound 227503] | 24 |
| 227504 (antisense eT*eA*e[5mC]*e[5mC]*eT*dG*dA*dG*dA*d[5mC]*d[5mC]*d[5mC]*d[5mC]*dG*d[5mC]*eG*e[5mC]*eA*eG*e[5mC]) [compound 227504] | 34 |
| 227505 (antisense eT*eA*e[5mC]*e[5mC]*eT*dG*dA*dG*dA*d[5mC]*d[5mC]*d[5mC]*dA*d[5mC]*dA*eA*eG*e[5mC]*eG*eG) [compound 227505] | 39 |
| 227506 (antisense e[5mC]*e[5mC]*eT*e[5mC]*e[5mC]*dA*dG*dT*dA*d[5mC]*d[5mC]*dT*d[5mC]*dG*dG*eA*eG*eT*eT*eT) [compound 227506] | 69 |
| 227507 (antisense eG*eT*e[5mC]*e[5mC]*eT*dT*dG*d[5mC]*dT*d[5mC]*d[5mC]*dA*dG*dG*dT*eT*eA*eG*e[5mC]*eA) [compound 227507] | 89 |
| 227508 (antisense eT*eT*e[5mC]*e[5mC]*eA*d[5mC]*dT*d[5mC]*dA*d[5mC]*d[5mC]*d[5mC]*d[5mC]*dA*dG*eT*eT*e[5mC]*eA*eT) [compound 227508] | 51 |
| 227509 (antisense eG*e[5mC]*eA*eG*eT*dT*d[5mC]*dT*dA*dT*d[5mC]*dA*dG*dA*dA*e[5mC]*eT*eT*eT*eG) [compound 227509] | 82 |
| 227510 (antisense e[5mC]*eT*e[5mC]*e[5mC]*eA*dG*dA*d[5mC]*dG*dT*dG*dA*d[5mC]*d[5mC]*d[5mC]*eG*eA*e[5mC]*eT*e[5mC]) [compound 227510] | 64 |
| 227511 (antisense e[5mC]*e[5mC]*eA*e[5mC]*eG*d[5mC]*dA*d[5mC]*d[5mC]*d[5mC]*dA*d[5mC]*dA*dA*dG*e[5mC]*eG*eG*eA*eT) [compound 227511] | 71 |
| 227512 (antisense eT*eA*eA*e[5mC]*e[5mC]*dT*dA*dT*dG*dG*dT*dG*dA*d[5mC]*dT*eA*eT*eG*eT*e[5mC]) [compound 227512] | 36 |
| 227513 (antisense eT*eA*e[5mC]*e[5mC]*eT*dG*dA*dG*dA*d[5mC]*d[5mC]*dT*dG*d[5mC]*dA*eA*eG*eA*e[5mC]*eA) [compound 227513] | 40 |
| 227514 (antisense eA*eT*eG*e[5mC]*eT*d[5mC]*dA*d[5mC]*dG*dT*d[5mC]*dA*dG*d[5mC]*dT*eA*eT*eT*eG*eG) [compound 227514] | 43 |
| 227515 (antisense eA*eA*eA*eT*eT*d[5mC]*dT*dT*dA*d[5mC]*dT*dT*dG*dT*d[5mC]*e[5mC]*e[5mC]*e[5mC]*eA*eG) [compound 227515] | 37 |
| 227516 (antisense eT*eT*eG*eG*e[5mC]*dT*dT*dT*d[5mC]*d[5mC]*d[5mC]*dT*dG*dG*dA*eG*eG*eT*eT*e[5mC]) [compound 227516] | 57 |
